According to patent US9732075B2, “Benzimidazole-proline derivatives” (IDORSIA PHARMACEUTICALS LTD, priority 2012, dated 2017):

What was measured:
human orexin-2 receptor = human orexin-2 receptor (Homo sapiens (Human), UniProt O43614); experiment: In vitro assay: intracellular calcium measurements (FLIPR), antagonistic activity; assay type: cell-based; conditions: CHO cells expressing human orexin-2 receptor, orexin-A agonist, geometric mean, read-out: IC50 Ox2
How it was run: (§1)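 Orexin-A-evoked calcium rise (3 nM final, roughly EC70) was recorded with fluo-4 in recombinant CHO cells, human receptor subtype 1 or 2.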

human orexin-1 receptor = human orexin-1 receptor (Homo sapiens (Human), UniProt O43613); experiment: as above; assay type: cell-based; conditions: CHO cells expressing human orexin-1 receptor, orexin-A agonist, geometric mean, read-out: IC50 Ox1
How it was run: as §1

human orexin-1 receptor, sequence (O43613 whole entry): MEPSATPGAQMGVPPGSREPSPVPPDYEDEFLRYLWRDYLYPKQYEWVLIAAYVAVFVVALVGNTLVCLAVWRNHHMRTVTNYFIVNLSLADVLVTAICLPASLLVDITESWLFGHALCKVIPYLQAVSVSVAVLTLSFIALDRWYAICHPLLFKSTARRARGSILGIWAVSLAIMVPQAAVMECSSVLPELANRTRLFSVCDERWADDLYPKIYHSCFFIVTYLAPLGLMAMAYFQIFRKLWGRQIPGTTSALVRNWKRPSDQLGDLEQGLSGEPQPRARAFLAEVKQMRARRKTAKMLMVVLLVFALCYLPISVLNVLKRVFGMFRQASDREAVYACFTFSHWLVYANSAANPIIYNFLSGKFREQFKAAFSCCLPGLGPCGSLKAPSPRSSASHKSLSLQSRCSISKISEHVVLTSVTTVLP
human orexin-2 receptor, sequence (O43614 whole entry): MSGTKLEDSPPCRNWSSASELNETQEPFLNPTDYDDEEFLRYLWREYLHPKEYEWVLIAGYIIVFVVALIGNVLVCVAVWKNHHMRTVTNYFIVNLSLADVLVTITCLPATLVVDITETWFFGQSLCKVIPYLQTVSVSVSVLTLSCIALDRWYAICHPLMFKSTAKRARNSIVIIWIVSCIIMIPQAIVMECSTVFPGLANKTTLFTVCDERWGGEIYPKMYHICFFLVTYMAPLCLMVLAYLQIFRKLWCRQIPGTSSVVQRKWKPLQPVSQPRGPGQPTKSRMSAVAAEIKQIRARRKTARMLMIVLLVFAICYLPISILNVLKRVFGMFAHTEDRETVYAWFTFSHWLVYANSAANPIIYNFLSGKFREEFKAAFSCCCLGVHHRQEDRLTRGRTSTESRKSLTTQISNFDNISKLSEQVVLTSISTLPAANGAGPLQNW

Compound | IC50 (human orexin-2 receptor) [nM] | IC50 (human orexin-1 receptor) [nM]
CCn1c([C@]2(C)CCCN2C(=O)c2nc(C)sc2-c2ccccc2)nc2c(C)c(Cl)ccc21 [Ex. 7.8] | 4 | 2
COc1cc2nc([C@]3(C)CCCN3C(=O)c3cc(C)ccc3-n3nccn3)n(C)c2cc1OC [Ex. 7.9] | 28 | 28
CCn1c([C@]2(C)CCCN2C(=O)c2cc(C)ccc2-n2nccn2)nc2cc(OC)c(OC)cc21 [Ex. 7.10] | 42 | 33
Cc1ccc(C(=O)N2CCC[C@@]2(C)c2nc3cc(C)c(C)cc3n2C)c(-n2nccn2)c1 [Ex. 7.11] | 720 | 17
CCn1c([C@]2(C)CCCN2C(=O)c2ccc(C)cc2-n2nccn2)nc2cc(C)c(C)cc21 [Ex. 7.12] | 52 | 15
CCn1c([C@]2(C)CCCN2C(=O)c2cc(C)ccc2-c2ccc(F)cc2)nc2cc(C)c(C)cc21 [Ex. 7.16] | 21 | 8
CCn1c([C@]2(C)CCCN2C(=O)c2cc(C)ccc2-n2nccn2)nc2c(C)c(Cl)ccc21 [Ex. 7.21] | 2 | 1
Cc1c(Cl)ccc2c1nc([C@]1(C)CCCN1C(=O)c1cc(Cl)ccc1-n1nccn1)n2C [Ex. 7.22] | 4 | 1
Cc1cccc(-c2ccc(C)cc2C(=O)N2CCC[C@@]2(C)c2nc3cc(C)c(C)cc3n2C)c1 [Ex. 7.25] | 18 | 15
Cc1cccc(-c2ccc(C)cc2C(=O)N2CCC[C@@]2(C)c2nc3cc(C)c(C)cc3n2CC2CC2)c1 [Ex. 7.26] | 54 | 42
CCn1c([C@]2(C)CCCN2C(=O)c2cc(C)ccc2-c2cccc(C)c2)nc2cc(C)c(C)cc21 [Ex. 7.27] | 17 | 23
Cc1cccc(-c2ccc(C)cc2C(=O)N2CCC[C@@]2(C)c2nc3cc(C)c(C)cc3n2CCF)c1 [Ex. 7.28] | 19 | 14
COCCn1c([C@]2(C)CCCN2C(=O)c2cc(C)ccc2-c2cccc(C)c2)nc2cc(C)c(C)cc21 [Ex. 7.29] | 70 | 23
Cc1ccc(-n2nccn2)c(C(=O)N2CCC[C@@]2(C)c2nc3cc(F)c(Br)cc3n2C)c1 [Ex. 7.32] | 124 | 7
Cc1nc(C(=O)N2CCC[C@@]2(C)c2nc3c(C)c(Cl)ccc3n2C)c(-c2cccc(Cl)c2)s1 [Ex. 7.33] | 3 | 1
Cc1ccc(-c2cccc(F)c2)c(C(=O)N2CCC[C@@]2(C)c2nc3cc(C)c(C)cc3n2CC2CC2)c1 [Ex. 7.34] | 84 | 16
COCCn1c([C@]2(C)CCCN2C(=O)c2cc(C)ccc2-c2cccc(F)c2)nc2cc(C)c(C)cc21 [Ex. 7.36] | 115 | 16
Cc1ccc(-c2ccc(C)cc2C(=O)N2CCC[C@@]2(C)c2nc3cc(C)c(C)cc3n2C)cc1 [Ex. 7.37] | 20 | 11
Cc1ccc(-c2ccc(C)cc2C(=O)N2CCC[C@@]2(C)c2nc3cc(C)c(C)cc3n2CC2CC2)cc1 [Ex. 7.39] | 61 | 43
Cc1ccc(-c2ccc(C)cc2C(=O)N2CCC[C@@]2(C)c2nc3cc(C)c(C)cc3n2CCF)cc1 [Ex. 7.40] | 39 | 23
COc1cccc(-c2ccc(C)cc2C(=O)N2CCC[C@@]2(C)c2nc3cc(C)c(C)cc3n2C)c1 [Ex. 7.42] | 28 | 38
Cc1ccc(-c2ccccc2F)c(C(=O)N2CCC[C@@]2(C)c2nc3cc(C)c(C)cc3n2C)c1 [Ex. 7.43] | 42 | 24
CCn1c([C@]2(C)CCCN2C(=O)c2cc(C)ccc2-c2cccc(OC)c2)nc2cc(C)c(C)cc21 [Ex. 7.44] | 35 | 21
CCn1c([C@]2(C)CCCN2C(=O)c2cc(C)ccc2-c2ccccc2F)nc2cc(C)c(C)cc21 [Ex. 7.45] | 60 | 31
COCCn1c([C@]2(C)CCCN2C(=O)c2cc(C)ccc2-n2nccn2)nc2cc(OC)c(OC)cc21 [Ex. 7.46] | 77 | 78
COc1cc2nc([C@]3(C)CCCN3C(=O)c3cc(C)ccc3-n3nccn3)n(CCF)c2cc1OC [Ex. 7.48] | 40 | 33
COc1cccc(-c2ccc(C)cc2C(=O)N2CCC[C@@]2(C)c2nc3cc(C)c(C)cc3n2CC2CC2)c1 [Ex. 7.49] | 173 | 96
Cc1ccc(-c2ccccc2F)c(C(=O)N2CCC[C@@]2(C)c2nc3cc(C)c(C)cc3n2CC2CC2)c1 [Ex. 7.50] | 171 | 66
COc1cccc(-c2ccc(C)cc2C(=O)N2CCC[C@@]2(C)c2nc3cc(C)c(C)cc3n2CCF)c1 [Ex. 7.51] | 27 | 19
Cc1ccc(-c2ccccc2F)c(C(=O)N2CCC[C@@]2(C)c2nc3cc(C)c(C)cc3n2CCF)c1 [Ex. 7.52] | 60 | 27

Further molecules by falling IC50 (human orexin-2 receptor), results first:

IC50 (human orexin-2 receptor) [nM] | IC50 (human orexin-1 receptor) [nM] | Compound
106 | 44 | COCCn1c([C@]2(C)CCCN2C(=O)c2cc(C)ccc2-c2ccc(C)cc2)nc2cc(C)c(C)cc21 [Ex. 7.41]
65 | 11 | Cc1ccc(-c2ccc(F)cc2)c(C(=O)N2CCC[C@@]2(C)c2nc3cc(C)c(C)cc3n2C)c1 [Ex. 7.15]
60 | 39 | COc1cc2nc([C@]3(C)CCCN3C(=O)c3cc(C)ccc3-n3nccn3)n(CC3CC3)c2cc1OC [Ex. 7.47]
50 | 23 | CCn1c([C@]2(C)CCCN2C(=O)c2cc(C)c(C)cc2-n2nccn2)nc2cc(OC)c(OC)cc21 [Ex. 7.14]
49 | 21 | COc1cc2nc([C@]3(C)CCCN3C(=O)c3cc(C)c(C)cc3-n3nccn3)n(C)c2cc1OC [Ex. 7.13]
33 | 33 | COc1cc2nc([C@]3(C)CCCN3C(=O)c3cc(Cl)ccc3-n3nccn3)n(C)c2cc1OC [Ex. 7.24]
30 | 8 | CCn1c([C@]2(C)CCCN2C(=O)c2cc(C)ccc2-c2ccc(C)cc2)nc2cc(C)c(C)cc21 [Ex. 7.38]
20 | 6 | Cc1ccc(-c2cccc(F)c2)c(C(=O)N2CCC[C@@]2(C)c2nc3cc(C)c(C)cc3n2CCF)c1 [Ex. 7.35]
19 | 4 | Cc1cc(C(=O)N2CCC[C@@]2(C)c2nc3cc(C)c(C)cc3n2C)c(-n2nccn2)cc1C [Ex. 7.17]
19 | 8 | CCn1c([C@]2(C)CCCN2C(=O)c2cc(C)ccc2-c2cccc(F)c2)nc2cc(C)c(C)cc21 [Ex. 7.31]
12 | 9 | Cc1ccc(-c2cccc(F)c2)c(C(=O)N2CCC[C@@]2(C)c2nc3cc(C)c(C)cc3n2C)c1 [Ex. 7.30]
8 | 5 | Cc1c(Cl)ccc2c1nc([C@]1(C)CCCN1C(=O)c1ccccc1-n1nccn1)n2C [Ex. 7.19]
6 | 5 | CCn1c([C@]2(C)CCCN2C(=O)c2nc(C)sc2-c2cccc(Cl)c2)nc2c(C)cccc21 [Ex. 7.6]
4 | 1 | Cc1ccc(-n2nccn2)c(C(=O)N2CCC[C@@]2(C)c2nc3c(C)c(Cl)ccc3n2C)n1 [Ex. 7.18]
3 | 2 | Cc1nc(C(=O)N2CCC[C@@]2(C)c2nc3c(C)c(Cl)ccc3n2C)c(-c2ccccc2)s1 [Ex. 7.7]
3 | 1 | COc1ccc(-n2nccn2)c(C(=O)N2CCC[C@@]2(C)c2nc3c(C)c(Cl)ccc3n2C)c1 [Ex. 7.23]
